Reference: patent US12606561B2, “Substituted pyrazolo[1,5-a][1,3,5]triazines as CDK inhibitors” (QURIENT CO., LTD., priority 2018, dated 2026)
pIC50: −log10 of the molar value.

Assays:
CDK1/Cyclin B = biological target: T1, CDK1/Cyclin B (Homo sapiens, UniProt P06493); test: Enzymatic assay for CDK1 (LANCE Ultra kinase assay, FRET based); format: biochemical; conditions: ATP at Km; read-out: CDK1 enzymatic activity IC50
T1 construct: purchased Invitrogen PR4768C
How it was run: (§1)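 TR-FRET (LANCE Ultra) kinase assays with a ULight-labelled peptide substrate and a Europium-labelled anti-phospho antibody. ATP was set at its Km for each kinase. Inhibition was measured on purified CDK/cyclin complexes: CDK7/Cyclin H/MNAT1 and CDK1/Cyclin B.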

CDK2/Cyclin A = biological target: T2, CDK2/Cyclin A (Homo sapiens, UniProt P24941); test: Enzymatic assay for CDK2 (LANCE Ultra kinase assay, FRET based); format: biochemical; conditions: ATP at Km
T2 construct: purchased Invitrogen PV6290
How it was run: (§2)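 TR-FRET kinase assay at ATP Km with ULight-MBP peptide (68 nM) and Eu-anti-phospho-MBP antibody; CDK2/Cyclin A at […], CDK5/p25 at […]. 8-dose 4-fold compound dilutions; 60 min kinase reaction at 23° C., EDTA stop, 60 min detection, read at 615/665 nm.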

CDK5/p25 = biological target: T3, CDK5/p25 (Homo sapiens, UniProt Q00535); test: Enzymatic assay for CDK5 (LANCE Ultra kinase assay, FRET based); format: biochemical; conditions: ATP at Km
T3 construct: purchased Invitrogen PR8543B
T3 sequence (Q00535 whole entry): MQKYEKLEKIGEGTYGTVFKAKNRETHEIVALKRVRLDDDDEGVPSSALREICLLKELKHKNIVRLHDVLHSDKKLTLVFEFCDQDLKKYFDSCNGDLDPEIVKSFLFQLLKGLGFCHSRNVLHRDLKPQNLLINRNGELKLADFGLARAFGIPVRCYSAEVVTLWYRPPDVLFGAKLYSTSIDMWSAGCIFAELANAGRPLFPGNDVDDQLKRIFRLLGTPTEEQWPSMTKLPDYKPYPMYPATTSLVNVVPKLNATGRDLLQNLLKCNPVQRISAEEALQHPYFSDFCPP
T3 sequence (Q15078 99-307 partner limits assumed): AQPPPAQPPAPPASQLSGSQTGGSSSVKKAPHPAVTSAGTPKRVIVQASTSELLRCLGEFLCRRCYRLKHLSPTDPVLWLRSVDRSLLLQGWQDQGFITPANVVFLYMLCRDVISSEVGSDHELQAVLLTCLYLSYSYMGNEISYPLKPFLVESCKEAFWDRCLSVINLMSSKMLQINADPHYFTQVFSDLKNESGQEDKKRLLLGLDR
How it was run: as §2

CDK7/Cyclin H/MNAT1 = biological target: T4, CDK7/Cyclin H/MNAT1 (Homo sapiens, UniProt P50613); test: Enzymatic assay for CDK7 (LANCE Ultra kinase assay, FRET based); format: biochemical
T4 construct: purchased Invitrogen PR6749B
T4 sequence (P50613 whole entry): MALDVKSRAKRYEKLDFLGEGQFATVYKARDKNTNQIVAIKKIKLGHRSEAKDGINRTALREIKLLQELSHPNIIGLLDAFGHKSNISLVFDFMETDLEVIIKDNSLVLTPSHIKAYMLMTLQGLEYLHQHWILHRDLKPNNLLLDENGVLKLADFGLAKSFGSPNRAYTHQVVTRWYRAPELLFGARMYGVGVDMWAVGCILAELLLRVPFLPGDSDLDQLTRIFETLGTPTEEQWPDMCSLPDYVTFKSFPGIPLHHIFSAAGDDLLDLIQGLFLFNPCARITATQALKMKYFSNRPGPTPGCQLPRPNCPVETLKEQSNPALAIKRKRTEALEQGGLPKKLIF
T4 sequence (P51946 whole entry partner): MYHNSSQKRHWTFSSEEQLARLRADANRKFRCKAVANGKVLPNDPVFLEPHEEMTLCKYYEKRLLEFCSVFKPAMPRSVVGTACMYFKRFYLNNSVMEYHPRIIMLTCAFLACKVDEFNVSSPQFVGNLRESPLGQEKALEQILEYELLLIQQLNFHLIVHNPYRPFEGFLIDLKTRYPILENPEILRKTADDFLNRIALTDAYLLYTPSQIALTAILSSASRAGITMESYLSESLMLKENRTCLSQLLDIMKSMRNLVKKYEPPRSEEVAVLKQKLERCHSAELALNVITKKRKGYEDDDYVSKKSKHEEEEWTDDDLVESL
T4 sequence (P51948 whole entry partner): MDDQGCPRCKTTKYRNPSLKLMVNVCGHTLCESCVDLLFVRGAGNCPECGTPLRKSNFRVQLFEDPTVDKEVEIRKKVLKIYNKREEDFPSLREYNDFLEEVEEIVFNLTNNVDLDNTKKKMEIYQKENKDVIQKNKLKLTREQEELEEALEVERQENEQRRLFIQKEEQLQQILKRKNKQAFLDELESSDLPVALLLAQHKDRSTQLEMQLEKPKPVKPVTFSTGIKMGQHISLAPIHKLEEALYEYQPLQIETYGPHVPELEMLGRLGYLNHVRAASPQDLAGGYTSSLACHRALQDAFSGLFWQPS
How it was run: as §1

H460 = test: Cellular H460 viability assay (CellTiter-Glo, 72 hours); format: cell-based; conditions: Homo sapiens, NCI-H460; H460 cells
Procedure: All cell lines were routinely tested for mycoplasma.
To effect of the CDK7 inhibitor to inhibit the growth of target cancer cells, viability assay were conducted a 72 hour time period. Briefly, the candidate cell line was plated in 96 well plate at the following density of cells respectively. 1×10^4 cells/well for MV4-11, 5×10^3 for H460 and OVCAR-3, and 1×10^3 for A2780. […] DMSO solvent without compound served as a control and final DMSO concentration lest than 0.1%. After 72 hours of incubation at 37° C., 5% CO2 incubator, cells were analyzed for the viability using the CellTiter-Glo Luminescent Cell Viability Assay (Promega, Cat #G7570). All viability assays were performed in duplicate and Luminescence was read using an Envision (Perkin Elmer, USA). Data was analyzed using XLfit software.

MV4-11 = test: Cellular MV4-11 viability assay (CellTiter-Glo, 72 hours); format: cell-based; conditions: Homo sapiens; MV4-11 cells
How it was run: (§3)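 Cells in RPMI-1640 with 10% FBS were seeded (MV4-11 1×10^4, OVCAR-3 5×10^3, A2780 1×10^3 cells/well) and treated 24 h later with compound at 0.0015–10 uM, final DMSO under 0.1%. After 72 h at 37 °C, viability was read by CellTiter-Glo luminescence, in duplicate.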

A2780 = A2780 viability assay (CellTiter-Glo, 72 hours); format: cell-based; conditions: Homo sapiens; A2780 cells
How it was run: as §3

OVCAR-3 = OVCAR-3 viability assay (CellTiter-Glo, 72 hours); format: cell-based; conditions: Homo sapiens; OVCAR-3 cells
How it was run: as §3

T1 sequence (P06493 whole entry): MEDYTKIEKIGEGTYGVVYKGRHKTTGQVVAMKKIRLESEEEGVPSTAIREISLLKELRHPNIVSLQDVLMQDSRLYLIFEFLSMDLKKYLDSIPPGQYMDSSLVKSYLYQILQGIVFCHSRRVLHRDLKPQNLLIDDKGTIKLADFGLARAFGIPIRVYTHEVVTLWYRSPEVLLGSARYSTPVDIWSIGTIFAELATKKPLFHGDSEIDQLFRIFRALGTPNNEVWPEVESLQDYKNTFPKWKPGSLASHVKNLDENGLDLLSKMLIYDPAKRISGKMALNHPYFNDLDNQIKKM
T1 sequence (P14635 whole entry partner): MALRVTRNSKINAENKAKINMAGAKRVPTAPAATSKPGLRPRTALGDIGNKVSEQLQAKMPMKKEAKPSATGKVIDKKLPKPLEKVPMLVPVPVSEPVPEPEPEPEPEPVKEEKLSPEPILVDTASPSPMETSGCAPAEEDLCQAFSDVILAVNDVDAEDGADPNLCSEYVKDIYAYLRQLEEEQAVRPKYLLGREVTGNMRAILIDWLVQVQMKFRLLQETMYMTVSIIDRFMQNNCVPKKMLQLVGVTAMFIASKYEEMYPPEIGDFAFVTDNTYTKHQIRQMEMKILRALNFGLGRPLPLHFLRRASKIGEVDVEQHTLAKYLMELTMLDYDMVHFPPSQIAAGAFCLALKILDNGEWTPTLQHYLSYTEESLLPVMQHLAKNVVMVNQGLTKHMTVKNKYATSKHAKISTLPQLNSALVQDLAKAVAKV

In the case of CC(C)c1cnn2c(NCc3ccccc3-c3nccc4cc(NC(=O)/C=C/CN(C)C)ccc34)nc(NC[C@H]3CCNC[C@@H]3O)nc12 [Compound 26], the pIC50 (CDK1/Cyclin B) was < 6.00, the pIC50 (CDK2/Cyclin A) was < 6.00 and the pIC50 (CDK5/p25) was < 6.00. The pIC50 (CDK7/Cyclin H/MNAT1; ATP at Km) was > 7.00, the “CDK1/CDK7: Selectivity of CDK7 inhibition over CDK1 inhibition” value (CDK7/Cyclin H/MNAT1; CDK7 over CDK1) was “A (A indicates [fold] > 500)” and the “CDK2/CDK7: Selectivity of CDK7 inhibition over CDK2 inhibition” value (CDK7/Cyclin H/MNAT1; CDK7 over CDK2) was “A (A indicates [fold] > 500)”. The “CDK5/CDK7: Selectivity of CDK7 inhibition over CDK5 inhibition” value (CDK7/Cyclin H/MNAT1; CDK7 over CDK5) was “A (A indicates [fold] > 500)”, the pIC50 (H460) was > 6.00 and the pIC50 (MV4-11) was > 6.00. The pIC50 (A2780) was > 6.00 and the pIC50 (OVCAR-3) was > 6.00.
